From PMC11594329, “Development of LAT1-Selective Nuclear Medicine Therapeutics Using Astatine-211” (International Journal of Molecular Sciences, 2024)

Experiments:
[1] = Single dose intravenous toxicity study (hematology, pathology) in ICR mice; format: in vivo; conditions: ICR mice male and female, 1 MBq/mouse
Method: Toxicity studies were performed using ^211At-AAMT-O-Me-L, which appeared to have the highest safety profile based on pharmacokinetic results. Labeled material was administered to ICR mice (male and female) at a dose of 1 MBq/mouse with a clear therapeutic effect, and samples were collected the day after administration and 5, 14, and 28 days later for blood and pathological examination.
Development of LAT1-selective nuclear medicine therapeutics
Kazuko Kaneda-Nakashima 1, 2*, Yoshifumi Shirakami 2, Kentaro Hisada 1, Sifan Feng 1, Yuichiro Kadonaga 2, Kazuhiro Ooe 2, Tadashi Watabe 3, Yoshiyuki Manabe 2, 4, Atsushi Shimoyama 2, 4, Masashi Murakami 2, Atsushi Toyoshima 2, Hiromitsu Haba 5, Yoshikatsu Kanai 6, Koichi Fukase 2, 4 […]
S1. Hematological analysis
S1.1. Animal preparation and administration of 211At-AAMT-O-Me-L
This study was conducted in compliance with the Animal Experiment […]
(Hamamatsu, Japan), respectively. […] General condition and body weight were monitored. […]
After the prescribed observation time, blood was collected under anesthesia and the animals were euthanized. […] Red blood cell count (RBC), hemoglobin concentration (Hb), hematocrit (Ht), white blood cell count (WBC), platelet count (platelet), lymphocytes (%Lymph), monocytes (%Mon), and granulocytes (%Gra) were calculated (Supplementary Table S2). […]

[2] = test system: LAT1-Tet/HEK293 cells; assay: Uptake versus LAT1 expression level (Dox-induced) in LAT1-Tet/HEK293 cells; format: cell-based; conditions: collection 30 min after treatment
Method: Each cell line was seeded in 24 wells at 1 × 10^5 cells/mL and allowed to become sub-confluent on the day of the experiment. Cells were washed with PBS (-) (Fujifilm Wako Pure Chemical, Osaka, Japan) prior to the addition of the compound, which was then replaced with uptake buffer. After treating the cells with the same dose, they were collected at predetermined time points. The cell dose was measured using a γ-counter (Wizard^2 2480; PerkinElmer, Waltham, MA, USA), and the protein content of the sample was determined. Protein content was measured using the BCA method, and the dose was corrected using the protein content (Protein Assay BCA kit, Fujifilm Wako Pure Chemical).
Figure 2 Comparison of uptake between the labeled compounds. (A) Relation between uptake ratio and LAT1 expression level. Uptake ratios were compared between LAT1-Tet/HEK293 cells. The Y-axis represents the uptake ratio, and the X-axis is concentration of Doxycycline (Dox) (TaKaRa Bio, Shiga, Japan). The collection time was 30 min after treatment. The expression of LAT1 increased with increasing amounts of Dox. (B) Comparison of uptake in PANC-1 cell line. The collection times were 0.5, 1, 5 and 10 min after treatment.
The PANC-1 cell line was obtained from the RIKEN Cell Bank and maintained in RPMI 1640 medium (Fujifilm Wako Pure Chemical, Osaka, Japan) supplemented with 10% inactivated fetal bovine serum (Thermo Fisher Scientific, Waltham, MA, USA). Mock/HEK293, LAT1/HEK293, and LAT2/HEK203 cells were kindly provided by Dr. Kanai. Cell lines controlling LAT1 expression were constructed using the Tet-on system. HEK293 cells were obtained from the RIKEN Cell Bank and maintained in E-MEM (Fujifilm Wako Pure Chemical) supplemented with 10% inactivated fetal bovine serum (Thermo Fisher Scientific) and non-essential amino acids (Fujifilm Wako Pure Chemical). The expression vectors were purchased from VectorBuilder, Inc. (Kanagawa, Japan). The purified viral particle genes were transfected into HEK293 cells. Drug selection and cloning of the cell line (Tet-LAT1/HEK293) were performed. […]

In the case of `COc1ccc(C[C@](C)(N)C(=O)O)cc1[211At]` [^211At-AAMT-O-Me-L, (S)-2-amino-3-(3-(astato-^211At)-4-methoxyphenyl)-2-methylpropanic acid], the “Toxicity findings (blood and pathological examination)” value ([1]; day after administration) is reported as “no effects were observed”, the “Toxicity findings (blood and pathological examination)” value ([1]; five days after administration, subsequently cured) is reported as “hematopoietic disorders originating from radiation exposure were observed” and the “Uptake ratio versus LAT1 expression (doxycycline concentration)” value [2] is reported as “highest increase in uptake”.
